Experimental data reported in patent US6037351A, “Method of inhibiting hepatitis B virus” (priority 1996, dated 2000).

Assays:
hepatitis B virus (HBV) = experiment: Intracellular HBV DNA in infected HepG2 cells (PCR, densitometry); assay type: cell-based, HBV in human hepatoma HepG2 cells; details: HepG2 cells infected with HBV and post treated with NBDNJ, vs untreated
Procedure: FIG. 3B and FIG. 3D: DNA from the intracellular compartment of the cultures infected in FIG. 3A with HBV and treated with NBDNJ were amplified by PCR. The lanes contain amplified DNA from the following samples:
FIG. 3D: Histogram of the area under the averaged peaks of the densitometric tracing of the gel in FIG. 3B. […] Equal volumes of the indicated samples were tested for HBV envelope antigens using the enzyme-linked imminosorbent assay (ELISA) method. Samples of unfractionated medium (FIGS. 4A, 4B and 4C) or partially purified virus (FIGS. 4D, 4E and 4F) from 3-day cultures were tested for HBV SHBs ("S) (FIGS. 4A and 4D), LHBs: "PreS1" (FIGS. 4B and 4E) or MHBs "PreS2" (FIGS. 4C and 4F) epitopes. […]
Progeny virus in the medium of HepG2 cells infected with serum derived HBV was detected by precipitating medium with monoclonal antibody to the PreS2 epitopes. […]
Since the culture medium of HBV infected HepG2 cells treated with NBDNJ was similar to 2.2.15 cells, with respect to the reduced amount of virion associated DNA, it was of interest to know if there was a concomitant increase in viral DNA within the treated cells. […] Products of the reaction were resolved by agarose gel electrophoresis and the ethidium bromide stained gel (FIG. 3B) was analyzed by densitometry (FIG. 3D).

LHBs (PreS1) = experiment: Western blot of LHBs in sucrose gradient virion fraction; assay type: cell-based, HBV; details: Western blot densitometry, FIG. 5C vs 5B lane 2
Procedure: (§1) Polyethylene glycol (PEG) precipitates of culture medium (FIG. 5A) or partly purified virions, HBs filaments and spheres from untreated (FIG. 5B) and NBDNJ treated (FIG. 5C) cultures were resolved by SDS-PAGE (13.5% acrylamide), transferred to immobilin paper and incubated with PreS1 and PreS2 specific monoclonal antibody.
(§2) Samples were dissolved in loading buffer, resolved by electrophoresis through 13.5% SDS polyacrylamide gels (SDS-PAGE) and transferred to PVDF (Millipore) membranes and blocked with 5% powdered milk, as in Gultekin and Heerman, Analytical Biochem. 172, 320-329 (1989). After incubation with primary antibody overnight at room temperature in 1% bovine serum albumin (BSA) in TNE and second antibody (peroxidase conjugated goat anti-mouse IgG serum) for 1 hour in TNE at room temperature, membranes were developed in peroxide-diaminobenzidine (Sigma) PBS, as described in the manufacturer's instructions.
(§3) The ELISA results were confirmed by Western blot analysis of fractions from the sucrose gradient containing either intact virus, filaments or spheres (FIGS. 5B, from untreated cultures, and 5C, from NBDNJ treated cultures). […]
(§4) Fractions distal to the virion containing fractions (near the bottom of the gradient) were resolved in lane 1 to show specificity of the antibody. […] The images shown in FIGS. 5B and 5C) were quantified by densitometry.

HBs proteins = experiment: Western blot of all HBs proteins in virions, filaments and spheres fractions; assay type: cell-based, HBV; details: medium of NBDNJ treated cultures, FIGS. 5B and 5C
Procedure: as §1, §2, §3, §4

[1] = test system: Human Immunodeficiency Virus (HIV); details: cited from earlier work

In the case of `CCCCN1C[C@H](O)[C@@H](O)[C@H](O)[C@H]1CO` [NBDNJ, N-butyl-1,5-dideoxy-1,5-imino-D-glucitol], the “accumulation of intracellular viral DNA” value (hepatitis B virus (HBV)) is reported as “accumulate greater amounts of viral DNA”, the “decrease of LHBs in virion samples compared to untreated” value (LHBs (PreS1)) is reported as “approximately 4 fold” and the “amount of all HBs proteins in virions, filaments and spheres” value (HBs proteins) is reported as “decrease in the amount of all HBs proteins”. The “formation of cytotoxic HIV in vitro (in words)” value [1] was “suppress formation of cytotoxic Human Immunodeficiency Virus (HIV) in vitro”.
